Paper PMC11379708, “Divergent mechanisms of steroid inhibition in the human ρ1 GABAA receptor” (Nature Communications, 2024)
Structures can show the parent of a compound that is named as a salt.

How the values were obtained:
human ρ1 GABAA receptor [1] = molecular target: T1, human ρ1 GABAA receptor (Homo sapiens, UniProt P24046); assay: cryo-EM structure ([…] Å); TEVC inhibition in Xenopus oocytes; F283Y/F284Y ablates inhibition; format: cell-based
T1 construct: gene GABRR1; ρ1-EM (flexible N-terminal region and intracellular M3-M4 loop deleted), homopentamer in saposin nanodiscs
T1 sequence (P24046 22-479): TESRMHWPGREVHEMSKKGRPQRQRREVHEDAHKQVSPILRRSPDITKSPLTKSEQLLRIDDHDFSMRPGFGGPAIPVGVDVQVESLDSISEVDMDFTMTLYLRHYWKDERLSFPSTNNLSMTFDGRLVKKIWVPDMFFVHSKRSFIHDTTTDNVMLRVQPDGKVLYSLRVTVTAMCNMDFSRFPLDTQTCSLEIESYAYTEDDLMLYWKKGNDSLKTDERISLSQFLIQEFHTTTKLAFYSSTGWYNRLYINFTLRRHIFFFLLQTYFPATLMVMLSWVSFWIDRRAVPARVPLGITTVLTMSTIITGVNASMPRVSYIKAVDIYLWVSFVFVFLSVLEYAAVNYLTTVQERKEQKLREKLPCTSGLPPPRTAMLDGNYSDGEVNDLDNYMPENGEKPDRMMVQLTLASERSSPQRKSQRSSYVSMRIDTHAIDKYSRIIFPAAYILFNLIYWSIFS

human ρ1 GABAA receptor [2] = molecular target: T1, human ρ1 GABAA receptor; assay: cryo-EM structure with GABA; TEVC voltage-dependent block (Woodhull fit); format: cell-based

Row | IC50 (human ρ1 GABAA receptor [1]) [µM] | Compound | Kd (human ρ1 GABAA receptor [2]) [µM]
1 | ~30 | C[C@]12CC[C@@H]3c4ccc(O)cc4CC[C@H]3[C@@H]1CC[C@@H]2O [E2, β-estradiol] | –
2 | – | CC(=O)C1CCC2C3CC=C4CC(OS(=O)(=O)O)CCC4(C)C3CCC12C (centres unmarked) [PS, pregnenolone sulfate] | 36.3
